In ChEMBL document CHEMBL3399926, “Synthesis and structure-activity relationships of boswellic acid derivatives as potent VEGFR-2 inhibitors” (Bioorg Med Chem, 2015):

System: HUVEC
Test: Antiproliferation activity against HUVEC cells after 48 hrs by CCK-8 assay
Type: functional, cell-based
Conditions: Homo sapiens

Structure (SMILES)	IC50 [µM]
CCNC(=O)[C@]1(C)[C@@H]2CC[C@]3(C)[C@H](C(=O)C=C4[C@@H]5[C@@H](C)[C@H](C)CC[C@]5(C)CC[C@]43C)[C@@]2(C)CC[C@H]1OC(C)=O	> 100
CO/N=C1\CC[C@@]2(C)[C@@H](CC[C@]3(C)[C@@H]2C(=O)C=C2[C@@H]4[C@@H](C)[C@H](C)CC[C@]4(C)CC[C@]23C)[C@@]1(C)C(=O)O	13.1
C[C@H]1[C@H](C)CC[C@]2(C)CC[C@]3(C)C(=CC(=O)[C@@H]4[C@@]5(C)Cc6c([nH]c7ccccc67)[C@](C)(C(=O)O)[C@@H]5CC[C@]43C)[C@H]12	8.22
CC(=O)O[C@@H]1CC[C@@]2(C)[C@@H](CC[C@]3(C)[C@@H]2C(=O)C=C2[C@@H]4[C@@H](C)[C@H](C)CC[C@]4(C)CC[C@]23C)[C@@]1(C)C(=O)NC1CCNCC1	8.23
CC(=O)O[C@@H]1CC[C@@]2(C)[C@@H](CC[C@]3(C)[C@@H]2C(=O)C=C2[C@@H]4[C@@H](C)[C@H](C)CC[C@]4(C)CC[C@]23C)[C@@]1(C)C(N)=O	5.02
C[C@H]1[C@H](C)CC[C@]2(C)CC[C@]3(C)C(=CC(=O)[C@@H]4[C@@]5(C)CC[C@@H](OC(=O)C(F)(F)F)[C@](C)(C(=O)O)[C@@H]5CC[C@]43C)[C@H]12	5.13
CC(=O)O[C@@H]1CC[C@@]2(C)[C@@H](CC[C@]3(C)[C@@H]2C(=O)C=C2[C@@H]4[C@@H](C)[C@H](C)CC[C@]4(C)CC[C@]23C)[C@@]1(C)C(=O)NN	> 100
CC(=O)O[C@@H]1CC[C@@]2(C)[C@@H](CC[C@]3(C)[C@@H]2CC=C2[C@@H]4[C@@H](C)[C@H](C)CC[C@]4(C)CC[C@]23C)[C@@]1(C)C(=O)O	> 100
CC(C)COC(=O)n1ncc2c1[C@](C)(C(=O)O)[C@@H]1CC[C@]3(C)[C@H](C(=O)C=C4[C@@H]5[C@@H](C)[C@H](C)CC[C@]5(C)CC[C@]43C)[C@@]1(C)C2	3.12
CC(=O)O[C@H]1CC[C@@]2(C)[C@@H](CC[C@]3(C)[C@@H]2C(=O)C=C2[C@@H]4[C@@H](C)[C@H](C)CC[C@]4(C)CC[C@]23C)[C@@]1(C)C(=O)O	35.8
CC(=O)O[C@@H]1CC[C@@]2(C)[C@@H](CC[C@]3(C)[C@@H]2C(=O)C=C2[C@@H]4[C@@H](C)[C@H](C)CC[C@]4(C)CC[C@]23C)[C@@]1(C)C(=O)N1CCNCC1	2.36
CC(=O)O[C@@H]1CC[C@@]2(C)[C@@H](CC[C@]3(C)[C@@H]2C(=O)C=C2[C@@H]4[C@@H](C)[C@H](C)CC[C@]4(C)CC[C@]23C)[C@@]1(C)C(=O)N1CCCNCC1	2.79
C[C@H]1[C@H](C)CC[C@]2(C)CC[C@]3(C)C(=CC(=O)[C@@H]4[C@@]5(C)CC[C@H](N)[C@](C)(C(=O)O)[C@@H]5CC[C@]43C)[C@H]12	5.32
CC(=O)O[C@@H]1CC[C@]2(C)[C@H]3C(=O)C=C4[C@@H]5[C@@H](C)[C@H](C)CC[C@]5(C)CC[C@@]4(C)[C@]3(C)CC[C@H]2[C@@]1(C)C#N	> 100
C[C@H]1[C@H](C)CC[C@]2(C)CC[C@]3(C)C(=CC(=O)[C@@H]4[C@@]5(C)CC[C@H](O)[C@](C)(C(=O)O)[C@@H]5CC[C@]43C)[C@H]12	27.2
CCNC(=O)n1ncc2c1[C@](C)(C(=O)O)[C@@H]1CC[C@]3(C)[C@H](C(=O)C=C4[C@@H]5[C@@H](C)[C@H](C)CC[C@]5(C)CC[C@]43C)[C@@]1(C)C2	5.8

Structure (SMILES)	IC50 [µM]
CC(=O)O[C@@H]1CC[C@@]2(C)[C@@H](CC[C@]3(C)[C@@H]2C(=O)C=C2[C@@H]4[C@@H](C)[C@H](C)CC[C@]4(C)CC[C@]23C)[C@@]1(C)C(=O)O [AKBA]	7.45
COC(=O)[C@]1(C)[C@@H]2CC[C@]3(C)[C@H](C(=O)C=C4[C@@H]5[C@@H](C)[C@H](C)CC[C@]5(C)CC[C@]43C)[C@@]2(C)CC[C@H]1OC(C)=O	4.6
C[C@H]1[C@H](C)CC[C@]2(C)CC[C@]3(C)C(=CC(=O)[C@@H]4[C@@]5(C)Cc6cnoc6[C@](C)(C(=O)O)[C@@H]5CC[C@]43C)[C@H]12	9.92
CC(=O)n1ncc2c1[C@](C)(C(=O)O)[C@@H]1CC[C@]3(C)[C@H](C(=O)C=C4[C@@H]5[C@@H](C)[C@H](C)CC[C@]5(C)CC[C@]43C)[C@@]1(C)C2	9.27
CC(=O)O[C@@H]1CC[C@@]2(C)[C@@H](CC[C@]3(C)[C@@H]2C(=O)C=C2[C@@H]4[C@@H](C)[C@H](C)CC[C@]4(C)CC[C@]23C)[C@@]1(C)C(=O)N1CCCCC1	35.8
C[C@H]1[C@H](C)CC[C@]2(C)CC[C@]3(C)C(=CC(=O)[C@@H]4[C@@]5(C)Cc6cn[nH]c6[C@](C)(C(=O)O)[C@@H]5CC[C@]43C)[C@H]12	2.13
CCOC(=O)C(=O)O[C@@H]1CC[C@@]2(C)[C@@H](CC[C@]3(C)[C@@H]2C(=O)C=C2[C@@H]4[C@@H](C)[C@H](C)CC[C@]4(C)CC[C@]23C)[C@@]1(C)C(=O)O	> 100
C[C@H]1[C@H](C)CC[C@]2(C)CC[C@]3(C)C(=CC(=O)[C@@H]4[C@@]5(C)Cc6cnn(C(=O)c7ccccc7)c6[C@](C)(C(=O)O)[C@@H]5CC[C@]43C)[C@H]12	6.31
CC(=O)O[C@@H]1CC[C@@]2(C)[C@@H](CC[C@]3(C)[C@@H]2C(=O)C=C2[C@@H]4[C@@H](C)[C@H](C)CC[C@]4(C)CC[C@]23C)[C@@]1(C)C(=O)N1CCOCC1	> 100
CC(=O)O[C@@H]1CC[C@@]2(C)[C@@H](CC[C@]3(C)[C@@H]2C(=O)C=C2[C@@H]4[C@@H](C)[C@H](C)CC[C@]4(C)CC[C@]23C)[C@@]1(C)C(=O)N(C)CCN(C)C	5.05
C[C@H]1[C@H](C)CC[C@]2(C)CC[C@]3(C)C(=CC(=O)[C@@H]4[C@@]5(C)CC/C(=N\O)[C@](C)(C(=O)O)[C@@H]5CC[C@]43C)[C@H]12	10.8
CC(=O)N[C@H]1CC[C@@]2(C)[C@@H](CC[C@]3(C)[C@@H]2C(=O)C=C2[C@@H]4[C@@H](C)[C@H](C)CC[C@]4(C)CC[C@]23C)[C@@]1(C)C(=O)O	47.5
CC(=O)O[C@@H]1CC[C@@]2(C)[C@@H](CC[C@]3(C)[C@@H]2C(=O)C=C2[C@@H]4[C@@H](C)[C@H](C)CC[C@]4(C)CC[C@]23C)[C@@]1(C)C(=O)NCCN	3.76
CC(=O)O[C@@H]1CC[C@@]2(C)[C@@H](CC[C@]3(C)[C@@H]2C(=O)C=C2[C@@H]4[C@@H](C)[C@H](C)CC[C@]4(C)CC[C@]23C)[C@@]1(C)C(=O)N1CCN(C)CC1	70.3
CC(=O)O[C@@H]1CC[C@@]2(C)[C@@H](CC[C@]3(C)[C@@H]2C(=O)C=C2[C@@H]4[C@@H](C)[C@H](C)CC[C@]4(C)CC[C@]23C)[C@@]1(C)C(=O)Nc1ccncc1	> 100
C[C@H]1[C@H](C)CC[C@]2(C)CC[C@]3(C)C(=CC(=O)[C@@H]4[C@@]5(C)Cc6cnn(C(=O)Nc7ccccc7)c6[C@](C)(C(=O)O)[C@@H]5CC[C@]43C)[C@H]12	9.11

System: HUVEC
Test: Induction of apoptosis in HUVEC cells
Type: functional, cell-based
Conditions: Homo sapiens

Structure (SMILES)	Activity
CC(=O)O[C@@H]1CC[C@@]2(C)[C@@H](CC[C@]3(C)[C@@H]2C(=O)C=C2[C@@H]4[C@@H](C)[C@H](C)CC[C@]4(C)CC[C@]23C)[C@@]1(C)C(=O)N1CCNCC1	Dose-dependent effect
C[C@H]1[C@H](C)CC[C@]2(C)CC[C@]3(C)C(=CC(=O)[C@@H]4[C@@]5(C)Cc6cn[nH]c6[C@](C)(C(=O)O)[C@@H]5CC[C@]43C)[C@H]12	Dose-dependent effect
